From patent US9846168B2, “Fluorescent metal ion indicators with large stokes shifts” (LIFE TECHNOLOGIES CORPORATION, priority 2004, dated 2017)

Experiments:
[1] = Absorption and fluorescence emission spectra of calcium binding compounds; type: physicochemical; conditions: for λem (nm): emission maximum, excited at wavelength of maximum absorption, Ca++ buffers 0-39 μM; for λex (nm): wavelength of maximum absorption, 39 μM Ca++ buffer, 100 mM KCl, 30 mM MOPS pH7.2 (Compounds 5, 10, 13), Zero Ca++ buffer (Compound 18), npH2O (Compound 21)
Experimental: (§1) In all cases, samples were dissolved in nanopure(np)-H2O at concentrations of approximately 1 mg/mL, except Compound 18 which was dissolved in 1:1 DMSO:npH2O. Non-quantitative aliquots of these solutions were added to approximately 3 mL of 39 μM Ca++ buffer, 100 mM KCl, 30 mM MOPS (pH7.2) (Compounds 5, 10, 13), Zero Ca++ buffer, 100 mM KCl, 30 mM MOPS (pH7.2) (Compound 18), or npH2O (Compound 21). Absorption spectra were obtained using a Perkin Elmer UV/Vis Spectrometer (Lambda 35 or 40). Fluorescence samples were prepared by pipetting aliquots of respective stock solutions to a series of disposable cuvettes containing 2 mL of Ca++ buffers from Calcium Calibration Buffer Kit #2 (Invitrogen cat.#3009) (0-39 μM). The final concentration of compound ranged from approximately 0.1-4 μM. Samples were excited at their wavelength of maximum absorption and spectra were obtained using a Perkin Elmer Luminescence Spectrometer (LS50B, LS55). Emission intensities were recorded at the respective maxima and Kd values calculated.

[2] = Calcium binding: fluorescence titration in Ca++ buffers (0-39 μM), Kd calculated; conditions: fluorescence change on calcium binding
Experimental: as §1

Structure (SMILES)	λem (nm) [1] [nm]	λex (nm) [1] [nm]	ΔF = Fb/Fo [2]
Cc1ccc(N(CC(=O)[O-])CC(=O)[O-])c(OCCOc2cc(CNC(=O)c3c4oc5cc(O)ccc5nc-4ccc3=O)ccc2N(CC(=O)[O-])CC(=O)[O-])c1.[Li+].[Li+].[Li+].[Li+] [Compound 18]	589	550	5
Cc1ccc(N(CC(=O)[O-])CC(=O)[O-])c(OCCOc2cc(CNC(=O)c3cc(=O)cc4oc5cc(N(C)C)ccc5nc3-4)ccc2N(CC(=O)[O-])CC(=O)[O-])c1.[Li+].[Li+].[Li+].[Li+] [Compound 21]	641	612	11
Cc1ccc(N(CC(=O)[O-])CC(=O)[O-])c(OCCOc2cc(CN3C(=O)c4cccc5c(N)ccc(c45)C3=O)ccc2N(CC(=O)[O-])CC(=O)[O-])c1.[K+].[K+].[K+].[K+] [Compound 13]	550	432	12
Cc1ccc(N(CC(=O)[O-])CC(=O)[O-])c(OCCOc2cc(CNS(=O)(=O)c3cccc4c(N(C)C)cccc34)ccc2N(CC(=O)[O-])CC(=O)[O-])c1.[K+].[K+].[K+].[K+] [Compound 5]	549	331	3
